Reference: patent publication US20150361184A1, “METHODS OF MODULATING DLK STABILITY” (GENENTECH, INC., priority 2013, published 2015)
Peptide text beside a SMILES is read from it. * marks the point of attachment. Cbz = O=C(OCc1ccccc1)*

Assays:
DLK [1] = assay: Western blot for DLK in unstressed embryonic DRG neurons cultured with NGF, treated for three hours; assay type: cell-based, mouse; conditions: DRGs +NGF, 3 hours; OA 200 nM, MG132 30 μM
Description: (§1) Dorsal root ganglia were dissected from E12.5 to E13.5 mouse embryos, trypsinized (except in the case of explants), and cultured in F12 medium containing N3 supplement, 40 mM glucose, and 25 ng/mL NGF on chamber slides coated with poly-d-lysine and laminin (BioCoat, BD). The day after plating, 3 μM arabinofuranoside (AraC, Sigma) was added to the medium, removed two days later, and the medium was replaced with N3/F12/NGF without AraC. For NGF withdrawal experiments, after 4 to 5 days in vitro, medium was replaced with medium containing no NGF and 25 μg/mL anti-NGF antibody (Genentech) for between 1 and 3 hours.
DRG cultures were lysed by incubation on ice for 30 min. in buffer containing 50 mM Tris pH 7.5, 150 mM NaCl, 5 mM EDTA, and 0.1% Triton X-100. HEK 293T cells were lysed by incubation on ice for 30 min. in radioimmunoprecipitation assay (RIPA) buffer. Retina and nerve tissue samples were lysed in RIPA buffer using a TissueLyser (Qiagen) with a 3 mm tungsten carbide bead (Qiagen) for 6 min. Unless otherwise noted, all lysis solutions contained Complete protease inhibitor cocktail and PhosSTOP phosphatase inhibitor cocktail (Roche). Protein concentrations of 293T and retina lysates were determined by BCA assay (Pierce). Samples were loaded on NuPAGE 4-12% Bis-Tris gels (Invitrogen) and subjected to standard immunoblotting procedures. Except where noted, gels blotted for DLK were run in MOPS buffer (Invitrogen). Due to the large size of Phr1, samples blotted for Phr1 were run on 3-8% Tris-Acetate gels (Invitrogen). Blots were visualized with chemiluminescence and exposure to film. For relative protein expression and molecular weight quantifications, blots were also visualized on a Chemidoc (Bio-Rad). Quantifications were performed in ImageLab (Bio-Rad). Protein expression was standardized to a loading control (actin or tubulin). Molecular weight was standardized to Precision Plus Protein WesternC Standards (Bio-Rad).

murine DLK = assay: SILAC mass spectrometry of DLK phosphorylation sites in 293T cells expressing Flag-tagged DLK; assay type: cell-based, mouse; conditions: WT DLK, okadaic acid 200 nM
Description: To identify functionally relevant phosphorylation sites on DLK, mass spectrometry in conjunction with stable isotope labeling by amino acids in cell culture (SILAC) was used. For these studies, 293T cells expressing FLAG-tagged DLK were cultured in SILAC media containing isotopically enriched (Heavy) versions of lysine (^13C6^15N2) and arginine (^13C6^15N4) or their unlabeled counterparts (Light). Four paired conditions (Light vs. Heavy) were established to dissect the effects of JNK and DLK activities on the overall abundance of DLK and the extent of DLK phosphorylation: 1) Wild-type (WT) DLK vs. DLK^S302A, 2) DLK^S302A vs. DLK^S302A co-expressed with a constitutively active JNK construct (Lei, K. et al. Molecular and cellular biology 22, 4929-4942 (2002)), 3) WT DLK vs. WT DLK with JNK inhibitor, and 4) WT DLK vs. WT DLK with okadaic acid (FIG. 5a).

DLK [2] = assay: JNK3 siRNA knockdown in JNK2 knockout DRGs with NGF withdrawal, blot for DLK; assay type: cell-based, mouse; conditions: JNK2 KO embryonic DRGs, compared to control siRNA
Description: as §1
For siRNA experiments, dissociated DRGs were transfected using the Amaxa nucleofection system (Lonza). JNK3 siRNA (sense 5′-ACATCGTAGTCAAGTCTGATTT-3′ (SEQ ID NO:10), antisense 5′-ATCAGACTTGACTACGATGTTT (SEQ ID NO:11)) was synthesized at Genentech (Kim, M. J. et al. Neuron 56, 488-502 (2007)). Control siRNA was ON-TARGETplus Non-targeting siRNA #1 from Dharmacon.
DRG cultures were lysed by incubation on ice for 30 min. in buffer containing 50 mM Tris pH 7.5, 150 mM NaCl, 5 mM EDTA, and 0.1% Triton X-100. […] Protein concentrations of 293T and retina lysates were determined by BCA assay (Pierce). […] For relative protein expression and molecular weight quantifications, blots were also visualized on a Chemidoc (Bio-Rad). Quantifications were performed in ImageLab (Bio-Rad). […]

DLK [3] = assay: DLK expression in stable cell line with dox-inducible DLK construct treated with JNK inhibitors; assay type: cell-based; conditions: inhibitors at 10 μM
Description: HEK 293T cells were lysed by incubation on ice for 30 min. in radioimmunoprecipitation assay (RIPA) buffer. […] Unless otherwise noted, all lysis solutions contained Complete protease inhibitor cocktail and PhosSTOP phosphatase inhibitor cocktail (Roche). Protein concentrations of 293T and retina lysates were determined by BCA assay (Pierce). Samples were loaded on NuPAGE 4-12% Bis-Tris gels (Invitrogen) and subjected to standard immunoblotting procedures. Except where noted, gels blotted for DLK were run in MOPS buffer (Invitrogen). […] Blots were visualized with chemiluminescence and exposure to film. For relative protein expression and molecular weight quantifications, blots were also visualized on a Chemidoc (Bio-Rad). Quantifications were performed in ImageLab (Bio-Rad). Protein expression was standardized to a loading control (actin or tubulin). Molecular weight was standardized to Precision Plus Protein WesternC Standards (Bio-Rad).
A stable cell line that expressed DLK in a doxicyclin-inducible fashion was used and cells were treated with two structurally distinct JNK inhibitors (FIG. 4c).

Row | Compound | apparent molecular weight / phosphorylation of DLK (DLK [1]) | total levels of DLK protein (DLK [1]) | fold change in phosphorylation of T43, okadaic-acid-treated vs untreated cells expressing DLK (murine DLK) | increase in DLK quantity with NGF withdrawal (DLK [2]) | DLK expression (levels of DLK protein) (DLK [3])
1 | CC(C)C[C@@H](C=O)NC(=O)[C@H](CC(C)C)NC(=O)[C@H](CC(C)C)NC(=O)OCc1ccccc1 [MG132] (Cbz-Leu-Leu-Leu-aldehyde) | without an increase in DLK phosphorylation | produced an increase in DLK levels | – | – | –
2 | C=C1[C@@H](O)[C@@H]2O[C@]3(CC[C@H](/C=C/[C@@H](C)[C@@H]4CC(C)=C[C@@]5(O[C@H](C[C@@](C)(O)C(=O)O)CC[C@H]5O)O4)O3)CC[C@H]2O[C@@H]1[C@@H](O)C[C@H](C)[C@H]1O[C@@]2(CCCCO2)CC[C@H]1C [okadaic acid] | sufficient to increase both the apparent molecular weight and total levels of DLK | sufficient to increase both the apparent molecular weight and total levels of DLK | 7.78 fold | – | –
3 | JNK3 siRNA: siRNA, sense 5′-ACATCGTAGTCAAGTCTGATTT-3′ (SEQ ID NO:10), antisense SEQ ID NO:11, synthesized at Genentech (sense ACATCGTAGTCAAGTCTGATTT; antisense ATCAGACTTGACTACGATGTTT; listed as DNA, chemistry not given here) | – | – | – | attenuated the increase in DLK | –
4 | JNK Inhibitor VII (TAT-TI-JIP153-163) [JNK7] | – | – | – | – | reduces DLK expression
